Assay type in all cases: cell-based
The nature of data set [1]: Cytotoxicity against mouse Hepa1c1c7 cells assessed as reduction in cell viability by MTT assay. The note with it: Hepa-1c1c7.
Data set [2] in a line: Cytotoxicity against mouse Hepa1c1c7 cells assessed as reduction in cell viability at 2.5 uM by MTT assay.
Data set [3] can be described thus: Cytotoxicity against mouse Hepa1c1c7 cells assessed as reduction in cell viability at 0.125 uM by MTT assay.

SMILES strings stand for the structures.

Regarding `C[S+]([O-])CCCCN=C=S` (centres undefined) [SULFORAPHANE], the IC50 in data set [1] was found to be 15.7 µM.

On to `COC1=CC(=O)[C@H](Cl)[C@H](O)[C@@H]1O`, for which the IC50 in data set [1] was greater than 50 µM.

Regarding `C=C[C@@]1(C)CC(=O)C2=C(CC[C@H]3C(C)(C)CCC[C@]23C)[C@H]1O`, the IC50 in data set [1] was greater than 50 µM.

As to `C=C[C@@]1(C)CCC2=C(C(=O)C(O)=C3C(C)(C)CCC[C@]23C(=O)O[C@H]2C(=O)C=C(OC)[C@@H](O)[C@H]2O)[C@H]1O`, the IC50 in data set [1] is 45.3 µM. For the same compound, in data set [2], the Activity entry is “Non-Toxic”.

For the compound `COC1=CC(=O)[C@@H]2O[C@@H]2[C@@H]1O`, the IC50 in data set [1] is greater than 50 µM.

Take `C=C[C@]1(C)C=C2[C@@H](O)[C@@]3(O)OC(=O)[C@@]4(CCCC(C)(C)[C@H]34)[C@@]2(O)CC1` [SPHAEROPSIDIN B]: in data set [1], the IC50 was greater than 50 µM.

As to `C=C[C@]1(C)C=C2C(=O)[C@@]3(O)OC(=O)[C@@]4(CCCC(C)(C)[C@H]34)[C@@]2(O)CC1` [SPHAEROPSIDIN A], the Activity entry in data set [3] is listed as “Non-Toxic”. Besides, in data set [1], the IC50 turned out to be 2.1 µM.

The values above are taken from ChEMBL document CHEMBL4190217, “Botrysphones A-C and Botrysphins A-F, Triketides and Diterpenoids from the Fungus Botrysphaeria laricina” (J Nat Prod, 2017).
